Results from PubChem BioAssay (NCI).
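Growth conditions: 96-well plates. Treatment: test compound, 48 hours, 5 concentrations. Analysis: linear interpolation between bracketing concentrations; unreached endpoints set to highest concentration. At the TGI there is no net growth.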

Columns and labels:
Test in all cases: growth of human tumour cells (NCI), 48 h
SNB-19 CNS = tested on: SNB-19 CNS
SK-MEL-28 melanoma = tested on: SK-MEL-28 melanoma
DLD-1 colon = tested on: DLD-1 colon
OVCAR-3 ovarian = tested on: OVCAR-3 ovarian
UO-31 renal = tested on: UO-31 renal
A498 renal = tested on: A498 renal
HCC-2998 colon = tested on: HCC-2998 colon
M14 melanoma = tested on: M14 melanoma
KM12 colon = tested on: KM12 colon
HCT-116 colon = tested on: HCT-116 colon
SN12C renal = tested on: SN12C renal
OVCAR-8 ovarian = tested on: OVCAR-8 ovarian
SF-268 CNS = tested on: SF-268 CNS
DMS 114 small cell lung = tested on: DMS 114 small cell lung
NCI-H23 lung = tested on: NCI-H23 lung
U251 CNS = tested on: U251 CNS
OVCAR-4 ovarian = tested on: OVCAR-4 ovarian
SW-620 colon = tested on: SW-620 colon
RXF 393 renal = tested on: RXF 393 renal
HL-60(TB) leukemia = tested on: HL-60(TB) leukemia
KM20L2 colon = tested on: KM20L2 colon
SK-MEL-5 melanoma = tested on: SK-MEL-5 melanoma
HOP-92 NSCLC = tested on: HOP-92 NSCLC
K-562 leukemia = tested on: K-562 leukemia
ACHN renal = tested on: ACHN renal
EKVX NSCLC = tested on: EKVX NSCLC
UACC-62 melanoma = tested on: UACC-62 melanoma
M19-MEL melanoma = tested on: M19-MEL melanoma
SNB-78 CNS = tested on: SNB-78 CNS
A549 NSCLC = tested on: A549 NSCLC
OVCAR-5 ovarian = tested on: OVCAR-5 ovarian
SF-295 CNS = tested on: SF-295 CNS
MALME-3M melanoma = tested on: MALME-3M melanoma
HT29 colon = tested on: HT29 colon
COLO 205 colon = tested on: COLO 205 colon
SK-MEL-2 melanoma = tested on: SK-MEL-2 melanoma
786-0 renal = tested on: 786-0 renal
RXF-631 renal = tested on: RXF-631 renal
IGROV1 ovarian = tested on: IGROV1 ovarian
NCI-H460 lung = tested on: NCI-H460 lung
SF-539 CNS = tested on: SF-539 CNS
LXFL 529 NSCLC = tested on: LXFL 529 NSCLC
TK-10 renal = tested on: TK-10 renal
RPMI-8226 leukemia = tested on: RPMI-8226 leukemia
HOP-18 NSCLC = tested on: HOP-18 NSCLC
HCT-15 colon = tested on: HCT-15 colon
CCRF-CEM leukemia = tested on: CCRF-CEM leukemia
SNB-75 CNS = tested on: SNB-75 CNS
LOX IMVI melanoma = tested on: LOX IMVI melanoma
SR leukemia = tested on: SR leukemia
HOP-62 NSCLC = tested on: HOP-62 NSCLC
SK-OV-3 ovarian = tested on: SK-OV-3 ovarian
XF 498 CNS = tested on: XF 498 CNS
MOLT-4 leukemia = tested on: MOLT-4 leukemia
NCI-H522 lung = tested on: NCI-H522 lung
UACC-257 melanoma = tested on: UACC-257 melanoma
CAKI-1 renal = tested on: CAKI-1 renal
NCI-H226 lung = tested on: NCI-H226 lung
DMS 273 small cell lung = tested on: DMS 273 small cell lung

`CC12CC[C@@H](C(C)(C)O)C1[C@@H](O)CC1(C)C2CCC2[C@@]3(C)CC[C@H](O)C(C)(C)C3C(O)C[C@]21C` (stereo not given in full) showed a TGI (SNB-19 CNS) of 46.5 µM, a TGI (SK-MEL-28 melanoma) of 40.2 µM and a TGI (DLD-1 colon) of 53.3 µM. It also gave a TGI (OVCAR-3 ovarian) of 35.3 µM, a TGI (UO-31 renal) of 40 µM and a TGI (A498 renal) of 32.3 µM. For the same compound, the TGI (HCC-2998 colon) was 36.2 µM, the TGI (M14 melanoma) was > 100 µM and the TGI (KM12 colon) was 38.1 µM. The TGI (HCT-116 colon) was 31.3 µM, the TGI (SN12C renal) was 29.9 µM and the TGI (OVCAR-8 ovarian) was 41.2 µM. It also gave a TGI (SF-268 CNS) of 39.7 µM, a TGI (DMS 114 small cell lung) of 38.2 µM and a TGI (NCI-H23 lung) of 39.2 µM. For the same compound, the TGI (U251 CNS) was 40 µM, the TGI (OVCAR-4 ovarian) was 32.6 µM and the TGI (SW-620 colon) was 39 µM. For the same compound, the TGI (RXF 393 renal) was 23.5 µM, the TGI (HL-60(TB) leukemia) was 24.9 µM and the TGI (KM20L2 colon) was 28.3 µM. It also gave a TGI (SK-MEL-5 melanoma) of 21.3 µM, a TGI (HOP-92 NSCLC) of 37.5 µM and a TGI (K-562 leukemia) of 24.5 µM. The TGI (ACHN renal) was 29.1 µM, the TGI (EKVX NSCLC) was 29 µM and the TGI (UACC-62 melanoma) was 34.7 µM. It also gave a TGI (M19-MEL melanoma) of 52.1 µM, a TGI (SNB-78 CNS) of 38.8 µM and a TGI (A549 NSCLC) of 29.7 µM. It also gave a TGI (OVCAR-5 ovarian) of 31.2 µM, a TGI (SF-295 CNS) of 37 µM and a TGI (MALME-3M melanoma) of 32.1 µM. It also gave a TGI (HT29 colon) of 31.1 µM, a TGI (COLO 205 colon) of 66.7 µM and a TGI (SK-MEL-2 melanoma) of 36.8 µM. The TGI (786-0 renal) was 33.8 µM, the TGI (RXF-631 renal) was 69 µM and the TGI (IGROV1 ovarian) was 39.5 µM. The TGI (NCI-H460 lung) was 37.5 µM, the TGI (SF-539 CNS) was 35.3 µM and the TGI (LXFL 529 NSCLC) was 29.4 µM. The TGI (TK-10 renal) was 35.6 µM, the TGI (RPMI-8226 leukemia) was > 100 µM and the TGI (HOP-18 NSCLC) was 41.1 µM. It also gave a TGI (HCT-15 colon) of 29.4 µM and a TGI (CCRF-CEM leukemia) of 27.3 µM.

For `COc1ccc(CNc2cc(OC)c(OC)c(OC)c2)cc1`, the TGI (SNB-19 CNS) was > 100 µM, the TGI (SK-MEL-28 melanoma) was > 100 µM and the TGI (DLD-1 colon) was > 100 µM. The TGI (OVCAR-3 ovarian) was > 48.5 µM, the TGI (SNB-75 CNS) was 97.1 µM and the TGI (UO-31 renal) was > 94.6 µM. The TGI (A498 renal) was > 83.4 µM, the TGI (LOX IMVI melanoma) was > 100 µM and the TGI (HCC-2998 colon) was 32.3 µM. For the same compound, the TGI (M14 melanoma) was > 100 µM, the TGI (KM12 colon) was > 41.7 µM and the TGI (SR leukemia) was > 100 µM. The TGI (HCT-116 colon) was > 42.4 µM, the TGI (SN12C renal) was > 100 µM and the TGI (OVCAR-8 ovarian) was > 100 µM. The TGI (SF-268 CNS) was 28.6 µM, the TGI (HOP-62 NSCLC) was > 71.5 µM and the TGI (DMS 114 small cell lung) was 9.19 µM. The TGI (SK-OV-3 ovarian) was > 90.5 µM, the TGI (NCI-H23 lung) was > 55.9 µM and the TGI (U251 CNS) was 24.3 µM. The TGI (OVCAR-4 ovarian) was 85.1 µM, the TGI (XF 498 CNS) was > 100 µM and the TGI (SW-620 colon) was > 100 µM. The TGI (RXF 393 renal) was 23 µM, the TGI (MOLT-4 leukemia) was > 77.8 µM and the TGI (NCI-H522 lung) was 31 µM. For the same compound, the TGI (HL-60(TB) leukemia) was > 24.5 µM, the TGI (KM20L2 colon) was > 23.7 µM and the TGI (SK-MEL-5 melanoma) was 14.6 µM. The TGI (HOP-92 NSCLC) was > 100 µM, the TGI (K-562 leukemia) was > 44.4 µM and the TGI (ACHN renal) was > 100 µM. The TGI (EKVX NSCLC) was 98.9 µM, the TGI (UACC-62 melanoma) was > 100 µM and the TGI (UACC-257 melanoma) was > 100 µM. The TGI (M19-MEL melanoma) was > 100 µM, the TGI (SNB-78 CNS) was 32.9 µM and the TGI (A549 NSCLC) was > 100 µM. The TGI (CAKI-1 renal) was > 100 µM, the TGI (OVCAR-5 ovarian) was > 83.7 µM and the TGI (SF-295 CNS) was > 55.1 µM. The TGI (MALME-3M melanoma) was > 100 µM, the TGI (NCI-H226 lung) was > 62.1 µM and the TGI (DMS 273 small cell lung) was > 100 µM. For the same compound, the TGI (HT29 colon) was > 100 µM, the TGI (COLO 205 colon) was 9.34 µM and the TGI (SK-MEL-2 melanoma) was > 100 µM. The TGI (786-0 renal) was > 100 µM, the TGI (RXF-631 renal) was > 100 µM and the TGI (IGROV1 ovarian) was > 100 µM. For the same compound, the TGI (NCI-H460 lung) was > 30 µM, the TGI (SF-539 CNS) was 35.1 µM and the TGI (LXFL 529 NSCLC) was > 100 µM. The TGI (TK-10 renal) was > 100 µM, the TGI (RPMI-8226 leukemia) was 83.1 µM and the TGI (HOP-18 NSCLC) was > 94.6 µM. For the same compound, the TGI (HCT-15 colon) was > 100 µM and the TGI (CCRF-CEM leukemia) was > 100 µM.

`CC1(Cl)C(=O)NC(=O)N(C2CC(N=[N+]=[N-])C(CO)O2)C1N=[N+]=[N-]` (stereo not given) was tested, and the TGI (SNB-19 CNS) was > 100 µM, the TGI (SK-MEL-28 melanoma) was > 100 µM and the TGI (DLD-1 colon) was > 100 µM. For the same compound, the TGI (OVCAR-3 ovarian) was > 100 µM, the TGI (SNB-75 CNS) was > 100 µM and the TGI (UO-31 renal) was > 100 µM. The TGI (A498 renal) was > 100 µM, the TGI (LOX IMVI melanoma) was > 100 µM and the TGI (HCC-2998 colon) was > 100 µM. The TGI (M14 melanoma) was > 100 µM, the TGI (KM12 colon) was > 100 µM and the TGI (SN12C renal) was > 100 µM. For the same compound, the TGI (OVCAR-8 ovarian) was > 100 µM, the TGI (SF-268 CNS) was > 100 µM and the TGI (HOP-62 NSCLC) was > 100 µM. The TGI (DMS 114 small cell lung) was > 100 µM, the TGI (SK-OV-3 ovarian) was > 100 µM and the TGI (NCI-H23 lung) was > 100 µM. For the same compound, the TGI (U251 CNS) was > 100 µM, the TGI (OVCAR-4 ovarian) was > 100 µM and the TGI (XF 498 CNS) was > 100 µM. For the same compound, the TGI (SW-620 colon) was > 100 µM, the TGI (RXF 393 renal) was > 100 µM and the TGI (MOLT-4 leukemia) was > 100 µM. For the same compound, the TGI (NCI-H522 lung) was > 100 µM, the TGI (HL-60(TB) leukemia) was > 100 µM and the TGI (KM20L2 colon) was > 100 µM. The TGI (SK-MEL-5 melanoma) was > 100 µM, the TGI (HOP-92 NSCLC) was > 100 µM and the TGI (K-562 leukemia) was > 100 µM. The TGI (ACHN renal) was > 100 µM, the TGI (EKVX NSCLC) was > 100 µM and the TGI (UACC-62 melanoma) was > 100 µM. For the same compound, the TGI (UACC-257 melanoma) was > 100 µM, the TGI (M19-MEL melanoma) was > 100 µM and the TGI (A549 NSCLC) was > 100 µM. The TGI (CAKI-1 renal) was > 100 µM, the TGI (OVCAR-5 ovarian) was > 100 µM and the TGI (SF-295 CNS) was > 100 µM. For the same compound, the TGI (MALME-3M melanoma) was > 100 µM, the TGI (DMS 273 small cell lung) was > 100 µM and the TGI (HT29 colon) was > 100 µM. For the same compound, the TGI (COLO 205 colon) was > 100 µM, the TGI (SK-MEL-2 melanoma) was > 100 µM and the TGI (786-0 renal) was > 100 µM. The TGI (RXF-631 renal) was > 100 µM, the TGI (IGROV1 ovarian) was > 100 µM and the TGI (NCI-H460 lung) was > 100 µM. For the same compound, the TGI (SF-539 CNS) was > 100 µM, the TGI (LXFL 529 NSCLC) was > 100 µM and the TGI (TK-10 renal) was > 100 µM. For the same compound, the TGI (RPMI-8226 leukemia) was > 100 µM, the TGI (HCT-15 colon) was > 100 µM and the TGI (CCRF-CEM leukemia) was > 100 µM.
